These results are taken from publication PMC12026874, “Microstructure of Sea Cucumber Parastichopus tremulus Peptide Hydrogels and Bioactivity in Caco-2 Cell Culture Model” (Gels, 2025).

The IC50 is the concentration that inhibits the measured activity by half. As usually defined, the inhibition is the relative decrease from the control value, in per cent.

Entries after “also recorded” stand apart in the source; their conditions may differ. Where no end group is shown, it is not given here.

The conditions of data set [1]: accompanying manufacturer information; ref ProteoGenix SAS; cited from earlier work. On the procedure:
The peptide synthesis was carried out using ProteoGenix SAS, (Schiltigheim France), followed by acetate N-terminal blocking and chromatography purification (LC-MS purity chromatograms per peptide are included in the Supplementary Materials). Thus, 1 g of lyophilized powder at 80% or a higher purity (technical grade) in sterile plastic bottles was provided by ProteoGenix for further research. The peptides were stored at −20 °C, opened only prior to the dissolution preparation and ...

The nature of data set [2]: Experimental solubility and minimum gelation conditions. Format: physicochemical. To be noted: for solubility in sodium phosphate buffer (NaPB): 75 mM sodium phosphate buffer pH 7.4 (also ORAC buffer), 1–15 mM; for peptide concentration at which gelation occurs in NaPB: 75 mM sodium phosphate buffer pH 7.4, room temperature, no DMSO.
For data set [3], the target named is T1, angiotensin-I converting enzyme (ACE I) (Oryctolagus cuniculus, UniProt P12822).
T1 construct: purchased Sigma Aldrich A6778
T1 sequence (P12822 34-1310): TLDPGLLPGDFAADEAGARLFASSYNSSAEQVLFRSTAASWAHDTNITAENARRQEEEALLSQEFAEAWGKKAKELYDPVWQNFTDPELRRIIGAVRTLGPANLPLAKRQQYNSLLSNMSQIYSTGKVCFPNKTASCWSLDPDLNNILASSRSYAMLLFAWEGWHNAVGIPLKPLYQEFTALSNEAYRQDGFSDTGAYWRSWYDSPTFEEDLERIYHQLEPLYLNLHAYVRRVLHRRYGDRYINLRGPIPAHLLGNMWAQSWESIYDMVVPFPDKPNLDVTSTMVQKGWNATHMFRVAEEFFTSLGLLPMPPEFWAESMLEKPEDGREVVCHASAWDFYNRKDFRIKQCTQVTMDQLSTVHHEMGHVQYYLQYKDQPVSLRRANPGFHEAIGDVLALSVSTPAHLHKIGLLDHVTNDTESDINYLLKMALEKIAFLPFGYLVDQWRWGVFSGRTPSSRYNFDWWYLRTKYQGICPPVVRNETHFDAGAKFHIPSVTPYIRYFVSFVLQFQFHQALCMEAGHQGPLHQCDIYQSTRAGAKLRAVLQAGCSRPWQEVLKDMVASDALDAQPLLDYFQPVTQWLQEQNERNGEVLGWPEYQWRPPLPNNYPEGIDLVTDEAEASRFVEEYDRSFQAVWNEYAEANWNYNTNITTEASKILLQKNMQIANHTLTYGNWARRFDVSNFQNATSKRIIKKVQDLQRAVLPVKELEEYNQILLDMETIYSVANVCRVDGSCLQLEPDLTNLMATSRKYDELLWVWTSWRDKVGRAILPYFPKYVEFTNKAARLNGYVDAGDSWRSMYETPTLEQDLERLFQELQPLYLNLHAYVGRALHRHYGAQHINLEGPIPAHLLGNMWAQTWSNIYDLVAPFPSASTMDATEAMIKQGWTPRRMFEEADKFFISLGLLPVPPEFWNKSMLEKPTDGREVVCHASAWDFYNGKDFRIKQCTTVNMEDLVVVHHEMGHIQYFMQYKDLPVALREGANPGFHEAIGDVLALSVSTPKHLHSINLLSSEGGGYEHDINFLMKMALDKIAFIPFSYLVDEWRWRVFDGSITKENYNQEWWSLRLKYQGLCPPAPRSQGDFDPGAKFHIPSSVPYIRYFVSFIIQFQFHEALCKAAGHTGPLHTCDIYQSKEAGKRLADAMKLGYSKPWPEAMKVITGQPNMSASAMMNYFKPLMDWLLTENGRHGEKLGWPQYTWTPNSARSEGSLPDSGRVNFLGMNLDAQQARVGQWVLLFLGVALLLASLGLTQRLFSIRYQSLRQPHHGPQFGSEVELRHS
The experiment in a line: ACE I inhibitory activity (cleavage of FA-PGG). It counts as biochemical. To be noted: for IC50: linear regression over 7, 8.5 and 10 mg/mL, substrate FA-PGG, three independent replicates, read-out: ACE I inhibition IC50 (converted). On the procedure:
For the angiotensin-I converting enzyme (ACE I) inhibitory activity measurements, the peptides were dissolved as described for the ORAC assay. As the highest possible concentration of the peptides without gel formation was 10 mg/mL and no activity could be detected at 5 mg/mL, the peptides were assessed at 7, 8.5, and 10 mg/mL in three independent replicates. The substrate N-[3-(2-furyl) acryloyl]-L-phenylalanyl-glycylglycine (FA-PGG; Sigma Aldrich F7131) was prepared at 0.88 mM in 50 mM Tris-Cl, pH 7.5, and 0.3 M NaCl. In 96-well plates, 10 µL of the samples and their respective buffers as controls were combined with 10 µL of ACE I (ACE; Sigma Aldrich A6778) at 0.25 U/mL and 150 µL of a preheated substrate solution. The absorbance was continuously measured every minute at 340 nm for 30 min in a Synergy HTX S1LFA plate reader. Linear regression curves were obtained for the decrease in absorbance over time for every sample and the % ACE I inhibition was calculated as:% ACE I inhibition = (1 − (ΔA340 nm protein solution/ΔA340 nm negative control)) × 100
Captopril was used to verify the functionality of the assay, and a logarithmic inhibition curve was obtained using 340, 34, 17, and 8.5 µM captopril. IC 50 values were calculated for the peptides for which a positive linear regression line could be obtained based on their ACE inhibition (%) at the assessed concentrations.

“Ac-EMLWLSDGSMGFAEDTDAAFLPGDTIFGRI [Peptide P1]”: the water solubility result in data set [1] was “poor”. In data set [2] (room temperature, visual), the “solubility in sodium phosphate buffer (NaPB)” value (“solubility … (NaPB)” below) is recorded as “dissolved after gentle agitation without any need for DMSO addition”. For the same substance, the “peptide concentration at which gelation occurs in NaPB” value (shortened to “peptide concentration … in NaPB”) in data set [2] is “above 15 mM”.

As to “Ac-QNGEYGCVADTPNLLYAFKILDYRQ [Peptide P4]”, the water solubility entry in data set [1] is recorded as “poor”. Further, the half-maximal inhibitory concentration (IC50) in data set [3] was 8.96 mM. Further, the “solubility … (NaPB)” value in data set [2] (room temperature, visual) is listed as “dissolved after gentle agitation without any need for DMSO addition”. In addition, the “peptide concentration … in NaPB” value in data set [2] is reported as “above 15 mM”.

As for Ac-RAGQPITAFLVRD [Peptide P2], the inhibition at 10000 µg/mL in data set [3] (at 10 mg/mL, mean of three replicates) amounted to 75%. In addition, the IC50 in data set [3] was 4.78 mM. The “solubility … (NaPB)” value in data set [2] (room temperature, visual) is “insoluble; also recorded: insolubility”. Further, in data set [2] (both buffers: Ca2+-containing artificial sea water pH 7.7 and 75 mM sodium phosphate buffer pH 7.4, 21 °C, visual, three repetitions), the individual peptide solubility entry was “low”.

With Ac-SRPSDPASAVAGEDYTGISRN [Peptide P3], the “solubility in Ca2+-containing buffer” value in data set [2] (1 mM peptide, artificial sea water pH 7.7, no DMSO, room temperature, visual) was “fully soluble”. The “solubility … (NaPB)” value in data set [2] (room temperature, visual) was “dissolved after gentle agitation without any need for DMSO addition”. The “peptide concentration … in NaPB” value in data set [2] was “above 15 mM”. The “peptide concentration needed for gelation (minimal gelation conditions)” value in data set [2] (Ca2+-containing buffer (artificial sea water, 11 mM Ca2+, pH 7.7), room temperature 21 °C, mix at 1:1:1:1 ratio) was 15 mM.
